Data from patent publication US20090258951A1, “Use of vanillyl alcohol for the treatment of Parkinson's disease” (Red Pharma & Biotech Research Corporation, priority 2008, published 2009).

Legend:
[1] = tested on: rat with right-side substantia nigra destroyed by 6-OHDA (6-hydroxydopamine); test: Amphetamine-induced rotation of rat with substantia nigra destroyed by 6-OHDA (animal gyroscope); assay type: in vivo
Method: (§1) After affixing rear head of a rat with a three-dimensional tightener and anaesthetizing the rat, then inject substantia nigra located at the right side of brain of the rat with 6-OHDA (6-hydroxydopamine) to destroy substantia nigra to make the rat produce tremor, rigidity, bradykinesia etc. Next, after the rat returns to and stays in room for 2 weeks, it is given amphetamine (5 mg/1000 g) via belly injection and then starts rotating round an animal gyroscope, wherein the number of rotations will be recorded (if the number of rotations exceeds 300 rotations per an hour, it means that the amphetamine has effected on the rat).
The substantia nigra of the brain of the rat is a tissue to release dopamine so that the injected amphetamine may accelerate the substantia nigra to release a large amount of dopamine. However, the substantia nigra located at the right side of brain of the rat has been destroyed by the 6-OHDA (6-hydroxydopamine) already unable to release dopamine any more, although the rat is injected with amphetamine for stimulation but the left side of body movement which is controlled by the right side of brain remains rigidity and bradykinesia. On the other hand, the substantia nigra located at the left side of brain of the rat is in normal condition without any injury so hyperkinesia occurs on the right side of body movement which is controlled by the left side of brain due to acceleration of amphetamine, that's why the rat keeps rotating for right turn (clockwise) and even uncontrollably.
(§2) With reference to FIG. 4, the rat is given with amphetamine about 1 mg per 1 kg of body weight thereof via belly injection and rotates round an animal gyroscope on 28th, 36th, 43rd and 52nd day respectively for right turn (clockwise) and left turn (counterclockwise), in which the number of rotations will be recorded.
as §2, with “to FIG. 5, the rat” for “to FIG. 4, the rat”, “injection and further provided with Vanillyl alcohol about 30 mg. Next, the rat rotates round” for “injection and rotates round”

[2] = tested on: rat with right-side substantia nigra destroyed by 6-OHDA (6-hydroxydopamine); assay type: in vivo
Method: as §1
The substantia nigra of the brain of the rat is a tissue to release dopamine so that the injected amphetamine may accelerate the substantia nigra to release a large amount of dopamine. […]
With reference to FIG. 7, the rat is given with L-DOPA about 50 mg per 1 kg of body weight thereof via belly injection and further provided with Vanillyl alcohol about 30 mg. […] Next, the rat rotates round an animal gyroscope on 28th, 36th, and 52nd day respectively for right turn (clockwise) and left turn (counterclockwise), in which the number of rotations will be recorded.

| Compound | number of rotations for left turn (counterclockwise) ([1]; amphetamine about 1 mg per 1 kg via belly injection alone, days 28, 36, 43, 52, symptom since 36th day (FIG. 4)) | behavioral asymmetry between right side and left side ([1]; amphetamine about 1 mg per 1 kg via belly injection alone, symptom since 36th day (FIG. 4)) | movements of the rat ([2]; L-DOPA about 50 mg per 1 kg via belly injection plus Vanillyl alcohol about 30 mg, benserazide 30 mg per 1 kg 30 minutes before, days 28, 36, 52 (FIG. 7)) | behavioral unbalance between right and left sides induced by L-DOPA ([2]; Vanillyl alcohol about 30 mg in combination with L-DOPA about 50 mg per 1 kg, benserazide pre-treatment (FIG. 7)) | number of rotations for right turn (clockwise) ([1]; amphetamine about 1 mg per 1 kg via belly injection plus Vanillyl alcohol about 30 mg, days 28, 36, 43, 52, effect since 43rd day, 52nd day most apparent (FIG. 5)) | behavioral asymmetry between right side and left side ([1]; amphetamine about 1 mg per 1 kg via belly injection plus Vanillyl alcohol about 30 mg, effect since 43rd day, 52nd day most apparent (FIG. 5)) |
| --- | --- | --- | --- | --- | --- | --- |
| CC(N)Cc1ccccc1 (stereo not drawn) [amphetamine, reference compound] | decreased gradually | increased apparently | – | – | – | – |
| COc1cc(CO)ccc1O [Vanillyl alcohol, 4-hydroxy-3-methoxy-benzyl alcohol] | – | – | almost normal | inhibit | decreased gradually | decreased apparently |
